Results as given in patent US11013732B2, “Use of macroazapyridinophanes metal complexes in the treatment of diseases” (BIONOS BIOTECH, S.L, priority 2017, dated 2021).

Test system: Caenorhabditis elegans expressing 110Q::TdTomato in mechanosensory neurons
Assay: Gentle touch sensitivity in C. elegans' Huntington's disease model expressing 110Q::TdTomato
Type: in vivo
Settings: 110Q::TdTomato animals without metal complex (II)
Protocol: The study was conducted to assess whether administration of metal complex (II) improves the neurosensitivity (gentle touch sensitivity) in Caenorhabditis elegans' (C. elegans) Huntington's disease model.
The initial and most generally used method to test for gentle touch sensitivity is to stroke animals with an eyebrow hair that has been glued to the end of a toothpick (FIG. 4).
C. elegans expressing 110CAG fused in frame with TdTomato in mechanosensory neurons aggregate and induced neural impairment were used. […] The tissue in light grey is the marker for transgenesis (i.e. green fluorescent protein (GFP) expressed in the pharynx).
The test was carried out using non-treated animals (expressing 110Q::TdTomato and thus showing neuronal impairment) as a control C, and animals treated with Metformin at 2 mM were used as a positive control. Each test was carried out treating animals (expressing 110Q::TdTomato showing neuronal impairment) with 5, 10 and 20 μM concentrations of metal complex (II), using non-treated animals as a control and animals treated with Metformin at a concentration of 2 mM as a positive control.
Finally, it was tested whether the rescue of the neuronal impairment due to 110Q::TdTomato expression shown with the treatment of metal complex (II) is produced by activation of autophagy. […]

CCN(CC)CCCC(C)Nc1ccnc2cc(Cl)ccc12 (stereo not shown) [Chloroquine, reference compound]
% of individuals showing touch response, chloroquine alone: does not induce additional touch response impairment
